{"source": "patent US11542273B2", "about": "“Amide compound having bet proteolysis-inducing action and medicinal application thereof” (MITSUBISHI TANABE PHARMA CORPORATION, priority 2018, dated 2023)", "key": {"[1]": {"system": "human prostate cancer LNCaP cells", "experiment": "Cytotoxic action on cancer cells (WST-8, 96 hr)", "type": "cell-based", "conditions": "Homo sapiens, LNCaP, 96 h, read-out: LNCaP cytotoxic activity: IC50", "method": "The cytotoxic action of the compound of the present invention against human cancer cells was evaluated in vitro. In this experiment, (+)-JQ1 (Nature volume 468, pages 1067-1073 (23 Dec. 2010)) known to have an inhibitory activity on the binding of BRD4 protein and a ligand therefor was used as a positive control drug. Respective cells were suspended in 10% FBS/RPMI1640, seeded in a 96 well plate and cultured at 5% CO2, 37° C. overnight. A test compound dissolved in DMSO was diluted with 10% FBS/RPMI1640 and added and the cells were further cultured for 96 hr. After culturing, the viable cell number was measured using a cell number measurement WST-8 kit (Kishida Chemical Co., Ltd.). As a control, the measurement was performed under conditions free of the test compound. The cytotoxic activity of the compound of the present invention against human prostate cancer LNCaP cells is shown in IC50 value in Table 1. […] It was calculated from the straight line connecting the cell survival rate at two points enclosing the 50% cell survival rate and the compound concentration. In addition, the cytotoxic activity against respective cancer cells of human acute myeloid leukemia MV-4-11 cell, human chronic myeloid leukemia K562 cell, human multiple myeloma MM.1S cell, human diffuse large B-cell lymphoma SU-DHL-6 cell, human T-cell leukemia Jurkat cells, human Burkitt lymphoma Raji cell, human castration-resistant prostate cancer PC-3 cell, human ovarian cancer A2780 cell, human bladder cancer 5637 cell, human breast cancer ZR-75-1 cell, human triple negative breast cancer MDA-MB-231 cell, human uterine sarcoma MES-SA cell, human gastric cancer SNU-16 cell, human non-small cell lung cancer NCI-H1975 cell, human small cell lung cancer NCI-H82 cell, human large cell lung cancer NCI-H460 cell, human colorectal cancer HCT116 cell, human glioma U-87 MG cell, human pancreatic cancer AsPC-1 cell, and human liver cancer Hep G2 cell is shown in IC50 value in Table 2."}, "BRD4 protein": {"target": "BRD4 protein (Homo sapiens (Human), UniProt O60885)", "experiment": "BRD4 protein degradation inducing action in cancer cells (immunofluorescence, Operetta)", "type": "cell-based", "conditions": "LNCaP cells, 6 hr treatment, fluorescence intensity", "method": "The degradation inducing action of the compound of the present invention on BRD4 protein in cancer cells was evaluated in vitro using human prostate cancer LNCaP cells. LNCaP cells were suspended in 10% FBS/RPMI1640, seeded in a 96 well Cell carrier plate (Perkin Elmer) and cultured at 5% CO2, 37° C. overnight. A test compound dissolved in DMSO was diluted with 10% FBS/RPMI1640 and added and the cells were further cultured for 6 hr. After culturing, the cells were immobilized with 4% para-formaldehyde/PBS and further subjected to a permeation treatment with 0.25% Triton X-100/PBS. Thereafter, the cells were blocked with 10% BSA/PBS, a solution containing Anti-Brd4 antibody (Abcam) or Anti-BRD4 (Sigma-Aldrich) as the primary antibody was added and the cells were incubated at 4° C. overnight. Thereafter, as the secondary antibody, a solution containing secondary antibody A shown below was added to Example compounds 1-190, 223 and 224, and a solution containing secondary antibody B shown below was added to Example compounds 191-222, and 0.5 μg/mL Hoechst 33342 (Sigma-Aldrich) and 14 μM Acti-Stain 555 Fluorescent Phalloidin (Cytoskeleton) were further added. After incubation for 1 hr, BRD4 protein amount was measured by Operetta (Perkin Elmer) as fluorescence intensity.\n• Anti-Rabbit IgG(H+L), F(ab′)2 Fragment (Alexa Fluor 488 Conjugate) (Cell Signaling Technology), fluorescence intensity was measured at excitation: 495 nm, emission: 519 nm. Secondary Antibody B • Goat anti-Rabbit IgG(H+L) Cross-Adserbed Secondary Antibody (Alexa Fluor 546) (Thermo Fisher Scientific) fluorescence intensity was measured at excitation: 560 nm, emission: 572 nm.\nThe BRD4 protein degradation inducing activity of the compound of the present invention in LNCaP cells is shown in DC50 value in Table 3. The DC50 value is a concentration of the compound showing 50% fluorescence intensity when the fluorescence intensity thereof under compound untreated condition is 100%. It was calculated from the straight line connecting the fluorescence intensity at two points enclosing the 50% fluorescence intensity and the compound concentration."}}}
{"molecule": "COC(=O)C[C@@H]1N=C(c2ccc(-c3ccc(C(=O)N[C@H](C(=O)N4C[C@H](O)C[C@H]4C(=O)N[C@@H](C)c4ccc(-c5scnc5C)cc4)C(C)(C)C)s3)cc2)c2c(sc(C)c2C)-n2c(C)nnc21", "note": "[Example 141, methyl [(6S)-4-{4-[5-({(2S)-1-[(2S,4R)-4-hydroxy-2-({(1S)-1-[4-(4-methyl-1,3-thiazol-5-yl)phenyl]ethyl}carbamoyl)pyrrolidin-1-yl]-3,3-dimethyl-1-oxobutan-2-yl}carbamoyl)thiophen-2-yl]phenyl}-2,3,9-trimethyl-6H-thieno[3,2-f][1,2,4]triazolo[4,3-a][1,4]diazepin-6-yl]acetate]", "values": [{"measurement": "IC50", "setting": "[1]", "value": 0.38, "unit": "nM"}, {"measurement": "DC50", "setting": "BRD4 protein", "value": 0.72, "unit": "nM"}]}
{"molecule": "COC(=O)C[C@@H]1N=C(c2ccc(-c3ccc4c(c3)N(CC(=O)N[C@H](C(=O)N3C[C@H](O)C[C@H]3C(=O)N[C@@H](C)c3ccc(-c5scnc5C)cc3)C(C)(C)C)C(=O)CC4)cc2)c2c(sc(C)c2C)-n2c(C)nnc21", "note": "[Example 146, methyl [(6S)-4-(4-{1-[2-({(2S)-1-[(2S,4R)-4-hydroxy-2-({(1S)-1-[4-(4-methyl-1,3-thiazol-5-yl)phenyl]ethyl}carbamoyl)pyrrolidin-1-yl]-3,3-dimethyl-1-oxobutan-2-yl}amino)-2-oxoethyl]-2-oxo-1,2,3,4-tetrahydroquinolin-7-yl}phenyl)-2,3,9-trimethyl-6H-thieno[3,2-f] [1,2,4]triazolo[4,3-a][1,4]diazepin-6-yl]acetate]", "values": [{"measurement": "IC50", "setting": "[1]", "value": 0.44, "unit": "nM"}, {"measurement": "DC50", "setting": "BRD4 protein", "value": 0.46, "unit": "nM"}]}
{"molecule": "COC(=O)C[C@@H]1N=C(c2ccc(-c3cccc4c3CN(CC(=O)N[C@H](C(=O)N3C[C@H](O)C[C@H]3C(=O)N[C@@H](C)c3ccc(-c5scnc5C)cc3)C(C)(C)C)CC4)cc2)c2c(sc(C)c2C)-n2c(C)nnc21", "note": "[Example 147, methyl [(6S)-4-(4-{2-[2-({(2S)-1-[(2S,4R)-4-hydroxy-2-({(1S)-1-[4-(4-methyl-1,3-thiazol-5-yl)phenyl]ethyl}carbamoyl)pyrrolidin-1-yl]-3,3-dimethyl-1-oxobutan-2-yl}amino)-2-oxoethyl]-1,2,3,4-tetrahydroisoquinolin-8-yl}phenyl)-2,3,9-trimethyl-6H-thieno[3,2-f] [1,2,4]triazolo[4,3-a][1,4]diazepin-6-yl]acetate]", "values": [{"measurement": "IC50", "setting": "[1]", "value": 0.34, "unit": "nM"}, {"measurement": "DC50", "setting": "BRD4 protein", "value": 0.28, "unit": "nM"}]}
{"molecule": "COC(=O)C[C@@H]1N=C(c2ccc(N3CCc4cc(OCC(=O)N[C@H](C(=O)N5C[C@H](O)C[C@H]5C(=O)N[C@@H](C)c5ccc(-c6scnc6C)cc5)C(C)(C)C)ccc43)cc2)c2c(sc(C)c2C)-n2c(C)nnc21", "note": "[Example 151, methyl [(6S)-4-(4-{5-[2-({(2S)-1-[(2S,4R)-4-hydroxy-2-({(1S)-1-[4-(4-methyl-1,3-thiazol-5-yl)phenyl]ethyl}carbamoyl)pyrrolidin-1-yl]-3,3-dimethyl-1-oxobutan-2-yl}amino)-2-oxoethoxy]-2,3-dihydro-1H-indol-1-yl}phenyl)-2,3,9-trimethyl-6H-thieno[3,2-f][1,2,4]triazolo[4,3-a] [1,4]diazepin-6-yl]acetate]", "values": [{"measurement": "IC50", "setting": "[1]", "value": 0.058, "unit": "nM"}, {"measurement": "DC50", "setting": "BRD4 protein", "value": 0.042, "unit": "nM"}]}
{"molecule": "COC(=O)C[C@@H]1N=C(c2ccc(-c3ccc(OCC(=O)N[C@H](C(=O)N4C[C@H](O)C[C@H]4C(=O)N[C@@H](C)c4ccc(-c5scnc5C)cc4)C(C)(C)C)c(CO)c3)cc2)c2c(sc(C)c2C)-n2c(C)nnc21", "note": "[Example 154, methyl [(6S)-4-{3′-(hydroxymethyl)-4′-[2-({(2S)-1-[(2S,4R)-4-hydroxy-2-({(1S)-1-[4-(4-methyl-1,3-thiazol-5-yl)phenyl]ethyl}carbamoyl)pyrrolidin-1-yl]-3,3-dimethyl-1-oxobutan-2-yl}amino)-2-oxoethoxy][1,1′-biphenyl]-4-yl}-2,3,9-trimethyl-6H-thieno[3,2-f][1,2,4]triazolo[4,3-a][1,4]diazepin-6-yl]acetate]", "values": [{"measurement": "IC50", "setting": "[1]", "value": 0.45, "unit": "nM"}, {"measurement": "DC50", "setting": "BRD4 protein", "value": 0.42, "unit": "nM"}]}
{"molecule": "COC(=O)C[C@@H]1N=C(c2ccc(N3CCc4ccc(C(=O)N[C@H](C(=O)N5C[C@H](O)C[C@H]5C(=O)N[C@@H](C)c5ccc(-c6scnc6C)cc5)C(C)(C)C)cc4C3)cc2)c2c(sc(C)c2C)-n2c(C)nnc21", "note": "[Example 161, methyl [(6S)-4-{4-[7-({(2S)-1-[(2S,4R)-4-hydroxy-2-({(1S)-1-[4-(4-methyl-1,3-thiazol-5-yl)phenyl]ethyl}carbamoyl)pyrrolidin-1-yl]-3,3-dimethyl-1-oxobutan-2-yl}carbamoyl)-3,4-dihydroisoquinolin-2(1H)-yl]phenyl}-2,3,9-trimethyl-6H-thieno[3,2-f][1,2,4]triazolo[4,3-a][1,4]diazepin-6-yl]acetate]", "values": [{"measurement": "IC50", "setting": "[1]", "value": 0.22, "unit": "nM"}, {"measurement": "DC50", "setting": "BRD4 protein", "value": 0.075, "unit": "nM"}]}
{"molecule": "COC(=O)C[C@@H]1N=C(c2ccc(-c3ccc(O[C@H]4C[C@@H](C(=O)N[C@H](C(=O)N5C[C@H](O)C[C@H]5C(=O)N[C@@H](C)c5ccc(-c6scnc6C)cc5)C(C)(C)C)C4)nc3)cc2)c2c(sc(C)c2C)-n2c(C)nnc21", "note": "[Example 162, methyl {(6S)-4-[4-(6-{[cis-3-({(2S)-1-[(2S,4R)-4-hydroxy-2-({(1S)-1-[4-(4-methyl-1,3-thiazol-5-yl)phenyl]ethyl}carbamoyl)pyrrolidin-1-yl]-3,3-dimethyl-1-oxobutan-2-yl}carbamoyl)cyclobutyl]oxy}pyridin-3-yl)phenyl]-2,3,9-trimethyl-6H-thieno[3,2-f][1,2,4]triazolo[4,3-a] [1,4]diazepin-6-yl}acetate]", "values": [{"measurement": "IC50", "setting": "[1]", "value": 0.37, "unit": "nM"}, {"measurement": "DC50", "setting": "BRD4 protein", "value": 0.3, "unit": "nM"}]}
{"molecule": "COC(=O)C[C@@H]1N=C(c2ccc(-c3ccc4cc(C(=O)N[C@H](C(=O)N5C[C@H](O)C[C@H]5C(=O)N[C@@H](C)c5ccc(-c6scnc6C)cc5)C(C)(C)C)oc4c3)cc2)c2c(sc(C)c2C)-n2c(C)nnc21", "note": "[Example 164, methyl [(6S)-4-{4-[2-({(2S)-1-[(2S,4R)-4-hydroxy-2-({(1S)-1-[4-(4-methyl-1,3-thiazol-5-yl)phenyl]ethyl}carbamoyl)pyrrolidin-1-yl]-3,3-dimethyl-1-oxobutan-2-yl}carbamoyl)-1-benzofuran-6-yl]phenyl}-2,3,9-trimethyl-6H-thieno[3,2-f][1,2,4]triazolo[4,3-a][1,4]diazepin-6-yl]acetate]", "values": [{"measurement": "IC50", "setting": "[1]", "value": 0.077, "unit": "nM"}, {"measurement": "DC50", "setting": "BRD4 protein", "value": 0.066, "unit": "nM"}]}
{"molecule": "COC(=O)C[C@@H]1N=C(c2ccc(-c3ccc(O[C@H]4C[C@H](C(=O)N[C@H](C(=O)N5C[C@H](O)C[C@H]5C(=O)N[C@@H](C)c5ccc(-c6scnc6C)cc5)C(C)(C)C)C4)nc3)cc2)c2c(sc(C)c2C)-n2c(C)nnc21", "note": "[Example 165, methyl {(6S)-4-[4-(6-{[trans-3-({(2S)-1-[(2S,4R)-4-hydroxy-2-({(1S)-1-[4-(4-methyl-1,3-thiazol-5-yl)phenyl]ethyl}carbamoyl)pyrrolidin-1-yl]-3,3-dimethyl-1-oxobutan-2-yl}carbamoyl)cyclobutyl]oxy}pyridin-3-yl)phenyl]-2,3,9-trimethyl-6H-thieno[3,2-f][1,2,4]triazolo[4,3-a] [1,4]diazepin-6-yl}acetate]", "values": [{"measurement": "IC50", "setting": "[1]", "value": 0.26, "unit": "nM"}, {"measurement": "DC50", "setting": "BRD4 protein", "value": 0.041, "unit": "nM"}]}
{"molecule": "COC(=O)C[C@@H]1N=C(c2ccc(-c3cncc(C(=O)N[C@H](C(=O)N4C[C@H](O)C[C@H]4C(=O)N[C@@H](C)c4ccc(-c5scnc5C)cc4)C(C)(C)C)n3)cc2)c2c(sc(C)c2C)-n2c(C)nnc21", "note": "[Example 167, methyl [(6S)-4-{4-[6-({(2S)-1-[(2S,4R)-4-hydroxy-2-({(1S)-1-[4-(4-methyl-1,3-thiazol-5-yl)phenyl]ethyl}carbamoyl)pyrrolidin-1-yl]-3,3-dimethyl-1-oxobutan-2-yl}carbamoyl)pyrazin-2-yl]phenyl}-2,3,9-trimethyl-6H-thieno[3,2-f][1,2,4]triazolo[4,3-a][1,4]diazepin-6-yl]acetate]", "values": [{"measurement": "IC50", "setting": "[1]", "value": 0.14, "unit": "nM"}, {"measurement": "DC50", "setting": "BRD4 protein", "value": 0.28, "unit": "nM"}]}
